The record followed here is patent US20110166128A1, “Diaryldiazepine Prodrugs for the Treatment of Neurological and Psychological Disorders” (priority 2010, published 2011).

The nature of the data set: physchem. The source says: At pH 4 and 5, 0.1 M citrate buffers were used, while for pH 6, 7 and 8 a set of 0.1M phosphate buffers were used. Each buffer also contained 0.2 M NaCl. No cosolvents or other potentially solubilizing components were included. Buffer preparations were subdivided in order to individually test the solubility of only one material in a given buffer sample.

Usually solubility stands for the dissolved amount per volume that the medium holds. Low readings indicate a poorly soluble substance, high ones a readily soluble substance. Consider `CCCCCCCCCCCCC(C)(C)C(=O)OC[N+]1(C)CCN(C2=Nc3ccccc3Nc3sc(C)cc32)CC1.[I-]` [Compound 18, 1-(((2,2-dimethyltetradecanoyl)oxy)methyl)-1-methyl-4-(2-methyl-10H-benzo[b]thieno[2,3-e][1,4]diazepin-4-yl)piperazin-1-ium iodide], for which the “variation in solubility across the pH range studied” value is recorded as “less than 2 fold”. Under “pH 4, aqueous buffer, thermodynamic from solid”, this compound had a solubility of 0.1 to 0.2 ng/mL.
